Legend:
[1] = human, serum
[2] = human
[3] = human, serum, 4383 h
[4] = human; remark: listed apart in the source
[5] = human; remark: listed apart in the source
[6] = Highest frequency of acute liver toxicity observed during clinical trials, expressed as a percentage. [column '% AIGUE' in source]; details: human
[7] = human; remark: listed apart in the source
[8] = human; remark: listed apart in the source
[9] = human; remark: listed apart in the source
[10] = human; remark: listed apart in the source
[11] = Times to onset, minimal and maximal, observed in the indexed observations. [column 'DELAI' in source]; details: human
[12] = human; remark: listed apart in the source
[13] = Highest frequency of moderate liver toxicity observed during clinical trials, expressed as a percentage. [column '% BIOL' in source]; details: human
[14] = human; remark: listed apart in the source
[15] = human, serum; remark: listed apart in the source
[16] = human; remark: listed apart in the source
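For Hepatotoxicity (association with vascular disease) in this document: count of indexed literature references reporting vascular liver injury in humans, e.g. peliosis hepatitis, hepatic veno-occlusive disease or Budd-Chiari syndrome.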
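For Hepatotoxicity (benign tumour) in this document: value is a count of indexed literature references citing a benign tumour confirmed by histopathology.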
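For Hepatotoxicity (choleostasis) in this document: human cholestatic liver injury, shown by histopathology or by peak ALT or AST elevation over alkaline phosphatase ratio below 2, value counts indexed literature reports.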
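For Hepatotoxicity (chronic liver disease) in this document: chronic liver injury confirmed by histopathology or persistently raised serum aminotransferase activity beyond 6 months, value given as the count of indexed literature references.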
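For Hepatotoxicity (cirrhosis) in this document: value is a count of indexed literature references reporting cirrhosis confirmed by histopathology.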
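For Hepatotoxicity (cytolytic) in this document: human cytolytic liver injury, shown by histopathology or by a ratio above 5 of peak ALT or AST elevation to alkaline phosphatase elevation, value counts indexed references.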
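For Hepatotoxicity (granulomatous hepatitis) in this document: value is a count of indexed literature references reporting granulomatous liver disease confirmed by histopathology.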
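For Hepatotoxicity (malignant tumour) in this document: malignant tumour confirmed by histopathology, value gives the count of indexed literature references reporting it.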
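For Hepatotoxicity (severe hepatitis) in this document: human clinical data: severe hepatitis, meaning potentially life-threatening liver failure or clinically observed cases, the value counts how many indexed literature references report it.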
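For Hepatotoxicity (steatosis) in this document: steatosis confirmed by histopathology, value is the count of indexed references.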

SMILES	Hepatotoxicity (acute) [1]	Hepatotoxicity (association with vascular disease) [2]	Hepatotoxicity (chronic liver disease) [3]	Hepatotoxicity (malignant tumour) [4]	Hepatotoxicity (benign tumour) [5]	Hepatotoxicity (acute) [6] [%]	Hepatotoxicity (cirrhosis) [7]	Hepatotoxicity (steatosis) [8]	Hepatotoxicity (choleostasis) [9]	Hepatotoxicity (granulomatous hepatitis) [10]	Hepatotoxicity (time to onset) [11]	Hepatotoxicity (animal toxicity known) [12]	Hepatotoxicity (moderate) [13] [%]	Hepatotoxicity (severe hepatitis) [14]	Hepatotoxicity (moderate) [15]	Hepatotoxicity (cytolytic) [16]	also measured
CN(C)[C@@H]1C(O)=C(C(=O)NCN2CCCC2)C(=O)[C@@]2(O)C(O)=C3C(=O)c4c(O)cccc4[C@@](C)(O)[C@H]3C[C@@H]12 [ROLITETRACYCLINE]	1	0	0	0	0	0	0	0	0	0	2 days	yes	0	1	0	1	–
CNCCC=C1c2ccccc2CCc2ccccc21 [NORTRIPTYLINE]	2	0	0	0	0	–	0	0	–	–	2 months - 3 months	yes	–	–	1	–	Hepatotoxicity (acute) ([6]; Liver): 0%; Hepatotoxicity (choleostasis) ([9]; Liver): 0; Hepatotoxicity (granulomatous hepatitis) ([10]; Liver): 0; Hepatotoxicity (moderate) ([13]; Liver): 0%; Hepatotoxicity (severe hepatitis) ([14]; Liver): 2; Hepatotoxicity (cytolytic) ([16]; Liver): 2
O=C(O)/C=C/C(=O)O [FUMARIC ACID]	0	0	0	0	0	0	0	0	0	0	2 months	yes	59	0	6	0	–
N[C@@H](Cc1cc(I)c(Oc2cc(I)c(O)c(I)c2)c(I)c1)C(=O)O [LEVOTHYROXINE]	1	0	0	0	0	0	1	0	0	0	12 days - 4 years	yes	0	0	1	0	–
CC[C@]1(O)C[C@@H]2CN(CCc3c([nH]c4ccccc34)[C@@](C(=O)OC)(c3cc4c(cc3OC)N(C)[C@H]3[C@@](O)(C(N)=O)[C@H](O)[C@]5(CC)C=CCN6CC[C@]43[C@@H]65)C2)C1 [VINDESINE]	0	0	0	0	0	0	0	0	0	0	–	yes	9.1	0	2	0	–
NC[C@@H]1CC[C@@H](N)[C@@H](O[C@H]2[C@H](O)[C@@H](O[C@H]3O[C@H](CO)[C@@H](O)[C@H](N)[C@H]3O)[C@H](N)C[C@@H]2N)O1 [DIBEKACIN]	0	0	0	0	0	0	0	0	0	0	–	yes	13.7	0	1	0	–
O=C1Nc2ccc(Cl)cc2C(c2ccccc2)=NC1O (stereo not drawn) [OXAZEPAM]	0	1	0	0	0	–	0	0	–	–	–	yes	–	–	0	–	Hepatotoxicity (acute) ([6]; Liver): 0%; Hepatotoxicity (choleostasis) ([9]; Liver): 0; Hepatotoxicity (granulomatous hepatitis) ([10]; Liver): 0; Hepatotoxicity (moderate) ([13]; Liver): 0%; Hepatotoxicity (severe hepatitis) ([14]; Liver): 0; Hepatotoxicity (cytolytic) ([16]; Liver): 0
CCCC1C(=O)N2C(N(C)C)=Nc3ccc(C)cc3N2C1=O (stereo not drawn) [APAZONE]	–	0	0	0	0	–	0	0	1	1	3 weeks	yes	0	0	1	0	–
Cc1[nH]cnc1CSCCNc1ncc(Cc2ccc3c(c2)OCO3)c(=O)[nH]1 [OXMETIDINE]	1	0	0	0	0	0.1	0	0	0	0	–	yes	0	0	1	0	–
CC(C)/N=c1\cc2n(-c3ccc(Cl)cc3)c3ccccc3nc-2cc1Nc1ccc(Cl)cc1 [CLOFAZIMINE]	1	0	0	0	0	5.6	0	0	1	0	–	yes	16	0	2	0	–
